EC (150% of vehicle control) data for 20 molecules are collected here from patent US7071231B2, “Naphthalene ureas as glucose uptake enhancers” (Telik, Inc., priority 1999, dated 2006).

The structures appear in SMILES notation.

The test system of one assay is 3T3 L1 fibroblasts. The assay is described as follows: Glucose transport activity assay (14C-2-deoxy-D-glucose uptake). Format: cell-based. As to conditions: Mus musculus, 3T3-L1, read-out: Concentration (μM) to reach >150% activity of vehicle control. The method, then: Glucose Transport Activity Assay.
Stimulation of the insulin receptor leads to the transport of glucose from the blood into cells, thus modulating blood glucose levels. 3T3 L1 fibroblasts (ATCC) were grown in Dulbecco's modified Eagle's medium (DMEM) with 10% fetal bovine serum (FBS). The cells were plated at a density of 3×10^4 cells/well in 24-well plates. Two days after confluence was reached, the cells were treated for 3 days with 0.5 mM isobutylmethylxanthine (IBMX), 1 μM dexamethasone, and 1.7 μM insulin. The cells were then transferred to DMEM with 10% FBS and supplemented with 1.7μM insulin for 2 more days. The cells were maintained in DMEM with 10% FBS for an additional 4 days. Finally the cells were serum-starved overnight in 0.1% bovine serum albumin (BSA) in DMEM.
The following day, the medium was replaced with 150 mM NaCl, 1.7 mM KCl, 0.9 mM CaCl2, K2HPO4 (pH 7.4) to which were added either the experimental compounds or their vehicle (DMSO). Insulin or its vehicle (0.01% BSA) was diluted in the assay buffer (containing test compound or vehicle, respectively) to final concentration of […]. After incubation for 30 min at 37° C., 5 μCi/ml ^14C-2-deoxy-D-glucose was added, and the incubation was continued for additional 30 min at 37° C. The cells were then washed 3 times with ice-cold PBS/20 mM glucose and lysed in 250 μl of lysis buffer (50 mM HEPES pH 7.6, 1% Triton X-100) for 30 min at room temperature. Radioactivity in the lysate was quantified by scintillation counting.
Once ^14C-2-deoxy-D-glucose is transported into the cell, it is not released. Glucose transport is, therefore, proportional to the amount of radioactivity in the lysate. The concentration of compound necessary to produce an increase in glucose transport to greater than 150% of the vehicle control (generally representing the sum of the standard deviation of the vehicle control plus the largest standard deviation of a test sample) was recorded as the EC (effective concentration). Shown in FIG. 3 is glucose uptake by cells at various concentrations when treated with Compound 13 and Compound 15.
With `CCOP(=O)(O)c1cccc(NS(=O)(=O)c2ccc3ccc(NC(=O)Nc4ccc5ccc(S(=O)(=O)Nc6cccc(P(=O)(O)OCC)c6)cc5c4)cc3c2)c1` [Compound 71, N-[7-({[3-(ethoxy(hydroxyphosphoryl))phenyl]amino}sulfonyl)(2-naphthyl)]{[7-({[3-(ethoxy(hydroxyphosphoryl))phenyl]amino}sulfonyl)(2-naphthyl)]amino}carboxamide], the EC (150% of vehicle control) was found to be 3.2 µM.

The same assay, now with this note: Mus musculus; EC (effective concentration) for increase in glucose transport; 14C-2-deoxy-D-glucose, 3T3 L1 cells; read-out: Concentration (μM) to reach >150% activity of vehicle control.
Consider `Cc1ccc(NS(=O)(=O)c2ccc3ccc(NC(=O)Nc4ccc5ccc(S(=O)(=O)Nc6ccc(C)c(C(=O)O)c6)cc5c4)cc3c2)cc1C(=O)O` [Compound 57, 5-{[(7-{[N-(7-{[(3-carboxy-4-methylphenyl)amino]sulfonyl}(2-naphthyl))carbamoyl]amino}(2-naphthyl))sulfonyl]amino}-2-methylbenzoic acid], for which the EC (150% of vehicle control) worked out at 3.2 µM.

Turning to `O=C(Nc1ccc2c(O)cc(S(=O)(=O)Nc3cccc(C(=O)O)c3Cl)cc2c1)Nc1ccc2c(O)cc(S(=O)(=O)Nc3cccc(C(=O)O)c3Cl)cc2c1` [Compound 59, 3-{[(7-{[N-(7-{[(3-carboxy-2-chlorophenyl)amino]sulfonyl}-5-hydroxy(2-naphthyl))carbamoyl]amino}-4-hydroxy(2-naphthyl))sulfonyl]amino}-2-chlorobenzoic acid], the EC (150% of vehicle control) stood at 32 µM.

Consider `O=C(Nc1ccc2c(O)cc(S(=O)(=O)Nc3cc(C(=O)O)ccc3Cl)cc2c1)Nc1ccc2c(O)cc(S(=O)(=O)Nc3cc(C(=O)O)ccc3Cl)cc2c1` [Compound 60, 3-{[(7-{[N-(7-{[(3-carboxy-6-chlorophenyl)amino]sulfonyl}-5-hydroxy(2-naphthyl))carbamoyl]amino}-4-hydroxy(2-naphthyl))sulfonyl]amino}-4-chlorobenzoic acid], for which the EC (150% of vehicle control) is over 32 µM.

On to `COc1ccc(NS(=O)(=O)c2ccc3ccc(NC(=O)Nc4ccc5ccc(S(=O)(=O)Nc6ccc(OC)c(C(=O)O)c6)cc5c4)cc3c2)cc1C(=O)O` [Compound 62, 5-{[(7-{[N-(7-{[(3-carboxy-4-methoxyphenyl)amino]sulfonyl}(2-naphthyl))carbamoyl]amino}(2-naphthyl))sulfonyl]amino}-2-methoxybenzoic acid], for which the EC (150% of vehicle control) is 10 µM.

Consider `O=C(Nc1ccc2ccc(S(=O)(=O)Nc3cc(C(=O)O)ccc3O)cc2c1)Nc1ccc2ccc(S(=O)(=O)Nc3cc(C(=O)O)ccc3O)cc2c1` [Compound 64, 3-{[(7-{[N-(7-{[(3-carboxy-6-hydroxyphenyl)amino]sulfonyl}(2-naphthyl))carbamoyl]amino}(2-naphthyl))sulfonyl]amino}-4-hydroxybenzoic acid], for which the EC (150% of vehicle control) turned out to be 3.2 µM.

`COC(=O)c1ccc(OC)c(NS(=O)(=O)c2ccc3ccc(NC(=O)Nc4ccc5ccc(S(=O)(=O)Nc6cc(C(=O)OC)ccc6OC)cc5c4)cc3c2)c1` [Compound 65, methyl 4-methoxy-3-({[7-({[7-({[2-methoxy-5-(methoxycarbonyl)phenyl]amino}sulfonyl)(2-naphthyl)]amino}carbonylamino)(2-naphthyl)]sulfonyl}amino)benzoate]: the EC (150% of vehicle control) was over 32 µM.

Regarding `COc1ccc(C(=O)O)cc1NS(=O)(=O)c1ccc2ccc(NC(=O)Nc3ccc4ccc(S(=O)(=O)Nc5cc(C(=O)O)ccc5OC)cc4c3)cc2c1` [Compound 66, 3-{[(7-{[(7-{[(3-carboxy-6-methoxyphenyl)amino]sulfonyl}(2-naphthyl))amino]carbonylamino}(2-naphthyl))sulfonyl]amino}-4-methoxybenzoic acid], the EC (150% of vehicle control) came out at 3.2 µM.

Regarding `O=C(Nc1ccc2ccc(S(=O)(=O)Nc3cccc(-c4nnn[nH]4)c3)cc2c1)Nc1ccc2ccc(S(=O)(=O)Nc3cccc(-c4nnn[nH]4)c3)cc2c1` [Compound 67, N-(7-{[(3-(1H-1,2,3,4-tetraazol-5-yl)phenyl)amino]sulfonyl}(2-naphthyl))[(7-{[(3-(1H-1,2,3,4-tetraazol-5-yl)phenyl)amino]sulfonyl}(2-naphthyl))amino]carboxamide], the EC (150% of vehicle control) came out at 3.2 µM.

On to `O=C(Nc1ccc2c(O)cc(S(=O)(=O)Nc3cccc(-c4nnn[nH]4)c3)cc2c1)Nc1ccc2c(O)cc(S(=O)(=O)Nc3cccc(-c4nnn[nH]4)c3)cc2c1` [Compound 68, N-(5-hydroxy-7-{[(3-(1H-1,2,3,4-tetraazol-5-yl)phenyl)amino]sulfonyl}(2-naphthyl))[(5-hydroxy-7-{[(3-(1H-1,2,3,4-tetraazol-5-yl)phenyl)amino]sulfonyl}(2-naphthyl))amino]carboxamide], for which the EC (150% of vehicle control) was 3.2 µM.

Take `O=C(Nc1ccc2c(O)cc(S(=O)(=O)Nc3ccc(-c4nnn[nH]4)cc3)cc2c1)Nc1ccc2c(O)cc(S(=O)(=O)Nc3ccc(-c4nnn[nH]4)cc3)cc2c1` [Compound 69, N-(5-hydroxy-7-{[(4-(1H-1,2,3,4-tetraazol-5-yl)phenyl)amino]sulfonyl}(2-naphthyl))[(5-hydroxy-7-{[(4-(1H-1,2,3,4-tetraazol-5-yl)phenyl)amino]sulfonyl}(2-naphthyl))amino]carboxamide]: the EC (150% of vehicle control) was over 32 µM.

As to `COC(=O)[C@H](Cc1ccc(O)cc1)NS(=O)(=O)c1ccc2ccc(NC(=O)Nc3ccc4ccc(S(=O)(=O)O)cc4c3)cc2c1` [Compound 72, 7-({[7-({[(1S)-2-(4-hydroxyphenyl)-1-(methoxycarbonyl)ethyl]amino}sulfonyl)-2-naphthyl]amino}carbonylamino)naphthalene-2-sulfonic acid], the EC (150% of vehicle control) was 3.2 µM.

For `O=C(Nc1ccc2ccc(S(=O)(=O)O)cc2c1)Nc1ccc2ccc(S(=O)(=O)N[C@@H](Cc3ccc(O)cc3)C(=O)O)cc2c1` [Compound 73, (2S)-3-(4-hydroxyphenyl)-2-{[(7-{[N-(7-sulfo(2-naphthyl))carbamoyl]amino}(2-naphthyl))sulfonyl]amino}propanoic acid], the EC (150% of vehicle control) came to 10 µM.

As to `COC(=O)[C@H](Cc1ccc(O)cc1)NS(=O)(=O)c1ccc2ccc(NC(=O)Nc3ccc4ccc(S(=O)(=O)N[C@@H](Cc5ccc(O)cc5)C(=O)OC)cc4c3)cc2c1` [Compound 74, methyl (2S)-2-({[7-({N-[7-({[(1S)-2-(4-hydroxyphenyl)-1-(methoxycarbonyl)ethyl]amino}sulfonyl)(2-naphthyl)]carbamoyl}amino)(2-naphthyl)]sulfonyl}amino)-3-(4-hydroxyphenyl)propanoate], the EC (150% of vehicle control) came to 3.2 µM.

With `O=C(Nc1ccc2ccc(S(=O)(=O)N[C@@H](Cc3ccc(O)cc3)C(=O)O)cc2c1)Nc1ccc2ccc(S(=O)(=O)N[C@@H](Cc3ccc(O)cc3)C(=O)O)cc2c1` [Compound 75, (2S)-2-({[7-({N-[7-({[(1S)-1-carboxy-2-(4-hydroxyphenyl)ethyl]amino}sulfonyl)(2-naphthyl)]carbamoyl}amino)(2-naphthyl)]sulfonyl}amino)-3-(4-hydroxyphenyl)propanoic acid], the EC (150% of vehicle control) came out at 3.2 µM.

Consider `O=C(Nc1ccc2ccc(S(=O)(=O)O)cc2c1)Nc1ccc2ccc(S(=O)(=O)Nc3ncccn3)cc2c1` [Compound 78, 7-[({7-[(pyrimidin-2-ylamino)sulfonyl]-2-naphthyl}amino)carbonylamino]naphthalene-2-sulfonic acid], for which the EC (150% of vehicle control) came out at 10 µM.

Regarding `O=C(Nc1ccc2ccc(S(=O)(=O)Nc3ncccn3)cc2c1)Nc1ccc2ccc(S(=O)(=O)Nc3ncccn3)cc2c1` [Compound 79, N-{7-[(pyrimidin-2-ylamino)sulfonyl](2-naphthyl)}({7-[(pyrimidin-2-ylamino)sulfonyl](2-naphthyl)}amino)carboxamide], the EC (150% of vehicle control) was 10 µM.

For the molecule `O=C(Nc1ccc2ccc(S(=O)(=O)Nc3cnccn3)cc2c1)Nc1ccc2ccc(S(=O)(=O)Nc3cnccn3)cc2c1` [Compound 80, N-{7-[(pyrazin-2-ylamino)sulfonyl](2-naphthyl)}({7-[(pyrazin-2-ylamino)sulfonyl](2-naphthyl)}amino)carboxamide], the EC (150% of vehicle control) is 3.2 µM.

Consider `O=C(Nc1ccc2ccc(S(=O)(=O)Nc3cccc(O)c3)cc2c1)Nc1ccc2ccc(S(=O)(=O)Nc3cccc(O)c3)cc2c1` [Compound 81, N-(7-{[(3-hydroxyphenyl)amino]sulfonyl}(2-naphthyl))[(7-{[(3-hydroxyphenyl)amino]sulfonyl}(2-naphthyl))amino]carboxamide], for which the EC (150% of vehicle control) turned out to be 3.2 µM.

For the molecule `O=C(Nc1ccc2c(O)cc(S(=O)(=O)Nc3cccc(CO)c3)cc2c1)Nc1ccc2c(O)cc(S(=O)(=O)Nc3cccc(CO)c3)cc2c1` [Compound 82, N-[5-hydroxy-7-({[3-(hydroxymethyl)phenyl]amino}sulfonyl)(2-naphthyl)]{[5-hydroxy-7-({[3-(hydroxymethyl)phenyl]amino}sulfonyl)(2-naphthyl)]amino}carboxamide], the EC (150% of vehicle control) came to 3.2 µM.
